Results as given in ChEMBL document CHEMBL4342407, “Thieno[2,3-d]pyrimidine as a promising scaffold in medicinal chemistry: Recent advances” (Bioorg Med Chem, 2019).
One block for each compound: values may come before it.

Assays:
Rattus norvegicus [1] = experiment: Antiinflammatory activity in po dosed Wistar rat assessed as reduction in carrageenan-induced paw edema pretreated for 1 hr followed by carrageenan challenge and measured over 2 to 4 hrs post carrageenan challenge by plethysmography; type: functional
Mus musculus [2] = experiment: Antiinflammatory activity in Swiss mouse assessed as inhibition of TPA-induced ear edema at 1 mg/ear applied topically and measured 4 hrs post-TPA challenge relative to control; type: functional
Rattus norvegicus [3] = experiment: Antiinflammatory activity in Wistar rat assessed as inhibition of cotton pellet-induced granuloma at 75 mg/kg, po administered daily for 7 days and measured on day 8 relative to control; type: functional
Rattus norvegicus [4] = experiment: Antiinflammatory activity in Wistar rat model of Freund's adjuvant-induced arthritis assessed as inhibition of arthritis by measuring reduction in paw volume at 75 mg/kg, po administered once daily for 8 days starting from day 7 post Freund's adjuvant treatment and measured after 18 days by mercury plethysmography relative to control; type: functional
Rattus norvegicus [5] = experiment: Antiinflammatory activity in Sprague-Dawley rat assessed as protection against carrageenan-induced edema at 40 mg/kg, po pretreated for 1 hr followed by carrageenan challenge and measured after 3 hrs by mercury plethysmometer relative to control; type: functional
[6] = Ulcerogenic activity in Wistar albino rat assessed as ulcer index at 250 mg/kg, ip pretreated for 1 hr followed by pylorus ligation and measured at 4 hrs post ligation; type: toxicity, organism-based; details: in vivo
Rattus norvegicus [7] = experiment: Anti-ulcer activity in Wistar albino rat assessed as reduction in pylorus ligation induced ulcer at 250 mg/kg, ip pretreated for 1 hr followed by pylorus ligation and measured at 4 hrs post ligation; type: functional
HepG2 [8] = experiment: Antiproliferative activity against human HepG2 at 50 ug/ml after 48 hrs by MTT assay; type: functional; details: HepG2, 48 h
ECa-109 cell line = experiment: Antiproliferative activity against human EC109 at 50 ug/ml after 48 hrs by MTT assay; type: functional; details: ECa-109, 48 h
MGC-803 = experiment: Antiproliferative activity against human MGC803 at 50 ug/ml after 48 hrs by MTT assay; type: functional; details: MGC-803, 48 h
HepG2 [9] = experiment: Antiproliferative activity against human HepG2 cells by MTT assay; type: functional, cell-based
MCF7 [10] = experiment: Antiproliferative activity against human MCF7 by MTT assay; type: functional, cell-based
Pseudomonas aeruginosa = experiment: Antibacterial activity against Pseudomonas aeruginosa assessed as zone inhibition at 500 ug/ml by cup plate agar diffusion method; type: functional; details: read-out: IZ
Candida albicans = experiment: […] activity against Candida albicans assessed as zone inhibition at 500 ug/ml by cup plate agar diffusion method; type: functional; details: read-out: IZ
Bacillus subtilis = experiment: Antibacterial activity against Bacillus subtilis assessed as zone inhibition at 500 ug/ml by cup plate agar diffusion method; type: functional; details: read-out: IZ
Escherichia coli = experiment: Antibacterial activity against Escherichia coli assessed as zone inhibition at 500 ug/ml by cup plate agar diffusion method; type: functional; details: read-out: IZ
Staphylococcus aureus = experiment: Antibacterial activity against Staphylococcus aureus assessed as zone inhibition at 500 ug/ml by cup plate agar diffusion method; type: functional; details: read-out: IZ
PC-3 = experiment: Antiproliferative activity against human PC3 after 24 hrs by MTT assay; type: functional, cell-based; details: PC-3, 24 h
HeLa = experiment: Antiproliferative activity against human HeLa after 24 hrs by MTT assay; type: functional, cell-based
MCF7 [11] = experiment: Antiproliferative activity against human MCF7 after 24 hrs by MTT assay; type: functional, cell-based; details: MCF7, 24 h
HEp-2 = experiment: Antiproliferative activity against human Hep2 after 24 hrs by MTT assay; type: functional, cell-based; details: HEp-2, 24 h
HepG2 [12] = experiment: Antiproliferative activity against human HepG2 after 24 hrs by MTT assay; type: functional, cell-based; details: HepG2, 24 h
[13] = Ulcerogenic activity in Sprague-Dawley rat assessed as ulcer index at 20 mg/kg, ip pretreated followed by pylorus ligation and measured at 4 hrs post ligation; type: toxicity, organism-based; details: in vivo
Mus musculus [14] = experiment: Analgesic activity in Swiss albino mouse assessed as protection against acetic acid-induced writhing at 15 mg/kg, po pretreated for 30 mins followed by acetic acid challenge and measured after 20 mins relative to control; type: functional

SMILES: CN1C(C(=O)Nc2ccccn2)=C(O)c2ccccc2S1(=O)=O [PIROXICAM]
ED50 (Rattus norvegicus [1]): 7.8 mg/kg
inhibition (INH) (Mus musculus [2]): 12.2%
inhibition in vivo at 75 mg/kg (Rattus norvegicus [3]): 67.9%
inhibition in vivo at 75 mg/kg (Rattus norvegicus [4]): 51.6%

SMILES: C[C@]12CC[C@H]3[C@@H](CC=C4C[C@H](O)CC[C@@]43C)[C@@H]1CC[C@@H]2c1csc(N)c1-c1nnc(SCC(=O)c2ccccc2)n1-c1ccccc1
Activity (Rattus norvegicus [5]): 99%
UI [6]: 0.83
inhibition in vivo at 250 mg/kg (Rattus norvegicus [7]): 76.9%

SMILES: COc1ccc(C2=NC3SC=C([C@H]4CC[C@H]5[C@@H]6CC=C7CC(O)CC[C@]7(C)[C@H]6CC[C@]45C)C3C(=O)N2N)cc1 (some centres not stated)
Activity (Rattus norvegicus [5]): 92%
UI [6]: 0.29
inhibition in vivo at 250 mg/kg (Rattus norvegicus [7]): 91.9%

SMILES: CCOP(=O)(OCC)C(Nn1c(C)nc2sc(CC)cc2c1=O)c1ccccc1 (configuration not stated)
inhibition at 50 µg/mL (HepG2 [8]): 66%
inhibition at 50 µg/mL (ECa-109 cell line): 66.3%
inhibition at 50 µg/mL (MGC-803): 50.3%

SMILES: CC(C)Cc1ccc(C(C)C(=O)O)cc1 (configuration not stated) [IBUPROFEN]
ED50 (Rattus norvegicus [1]): 19.7 mg/kg
inhibition (INH) (Mus musculus [2]): 40.2%
inhibition in vivo at 75 mg/kg (Rattus norvegicus [3]): 44.6%

SMILES: CCc1cc2c(=O)n(NC(c3cccc([N+](=O)[O-])c3)P(=O)(OC(C)C)OC(C)C)c(C)nc2s1 (configuration not stated)
inhibition at 50 µg/mL (HepG2 [8]): 90.8%
inhibition at 50 µg/mL (ECa-109 cell line): 45.3%
inhibition at 50 µg/mL (MGC-803): 63.6%

IC50 (HepG2 [9]): > 100 µM
IC50 (MCF7 [10]): 83.6 µM
SMILES: Cc1ccccc1CNc1nc(C(F)(F)F)nc2sc3c(c12)CCC3

SMILES: CSC1=[N+](N)C(c2ccccc2)c2c(sc3c2CCCC3)N1.[I-] (configuration not stated)
ED50 (Rattus norvegicus [1]): 72.5 mg/kg
inhibition (INH) (Mus musculus [2]): 20.8%
inhibition in vivo at 75 mg/kg (Rattus norvegicus [3]): 29.9%
inhibition in vivo at 75 mg/kg (Rattus norvegicus [4]): 10%

SMILES: CC(=C(C#N)C(=O)NN)[C@H]1CC[C@H]2[C@@H]3CC=C4CC(O)CC[C@]4(C)[C@H]3CC[C@]12C (some centres not stated)
Activity (Rattus norvegicus [5]): 90%
UI [6]: 2.11
inhibition in vivo at 250 mg/kg (Rattus norvegicus [7]): 41.4%

SMILES: C[C@]12CC[C@H]3[C@@H](CC=C4CC(O)CC[C@@]43C)[C@@H]1CC[C@@H]2C1=CSC2N=CN(N)C(=O)C12 (some centres not stated)
Activity (Rattus norvegicus [5]): 24%
UI [6]: 1.02
inhibition in vivo at 250 mg/kg (Rattus norvegicus [7]): 71.7%

SMILES: FC(F)(F)c1ccc(C2=Nc3ccccc3SC(c3cc4cncnc4s3)C2)cc1 (configuration not stated)
zone of inhibition at 500 µg/mL (Pseudomonas aeruginosa): 16.1 mm
zone of inhibition at 500 µg/mL (Candida albicans): 16 mm
zone of inhibition at 500 µg/mL (Bacillus subtilis): 18.8 mm
zone of inhibition at 500 µg/mL (Escherichia coli): 16.2 mm
zone of inhibition at 500 µg/mL (Staphylococcus aureus): 17 mm

IC50 (HepG2 [9]): 13.5 µM
IC50 (MCF7 [10]): 11.8 µM
SMILES: FC(F)(F)c1nc(NCc2ccccc2)c2c3c(sc2n1)CCC3

IC50 (HepG2 [9]): 7.31 µM
IC50 (MCF7 [10]): 5.18 µM
SMILES: Fc1cccc(CNc2nc(C(F)(F)F)nc3sc4c(c23)CCC4)c1

SMILES: CC(=O)NN1C(S)=Nc2sc3c(c2C1c1ccccc1)CCCC3 (configuration not stated)
ED50 (Rattus norvegicus [1]): 66.7 mg/kg
inhibition (INH) (Mus musculus [2]): 35.1%
inhibition in vivo at 75 mg/kg (Rattus norvegicus [3]): 39.9%
inhibition in vivo at 75 mg/kg (Rattus norvegicus [4]): 28.9%

IC50 (PC-3): 28.9 µM
IC50 (HeLa): 22.7 µM
IC50 (MCF7 [11]): 28.9 µM
IC50 (HepG2 [12]): 32.8 µM
SMILES: COc1ccc(/C=C/C(=O)c2sc3nc(S)n(-c4ccccc4)c(=O)c3c2C)cc1
IC50 (HEp-2): 39.5 µM

SMILES: c1ccc2c(c1)N=C(c1cnccn1)CC(c1cc3cncnc3s1)S2 (configuration not stated)
zone of inhibition at 500 µg/mL (Pseudomonas aeruginosa): 13.4 mm
zone of inhibition at 500 µg/mL (Candida albicans): 10.8 mm
zone of inhibition at 500 µg/mL (Bacillus subtilis): 16.2 mm
zone of inhibition at 500 µg/mL (Escherichia coli): 13.6 mm
zone of inhibition at 500 µg/mL (Staphylococcus aureus): 15.7 mm

SMILES: CC(=O)Oc1ccccc1C(=O)O [ASPIRIN]
ED50 (Rattus norvegicus [1]): 69.3 mg/kg
UI [13]: 1.1 to 1.7
Activity (Mus musculus [14]): 53%
inhibition (INH) (Mus musculus [2]): 20.1%
inhibition in vivo at 75 mg/kg (Rattus norvegicus [3]): 30.1%
inhibition in vivo at 75 mg/kg (Rattus norvegicus [4]): 40%

IC50 (HeLa): 50 µM
IC50 (MCF7 [11]): 18.9 µM
SMILES: Nc1c(C(=O)Nc2ccc(Cl)cc2)sc2nc(N3CCOCC3)nc(-c3ccccc3)c12

IC50 (PC-3): 27.7 µM
IC50 (HeLa): 17.8 µM
IC50 (MCF7 [11]): 25.8 µM
IC50 (HepG2 [12]): 30.1 µM
SMILES: Cc1c(C(=O)/C=C/c2cc(Br)cs2)sc2nc(S)n(-c3ccccc3)c(=O)c12
IC50 (HEp-2): 31.3 µM
